Measurements published in ChEMBL document CHEMBL3430912, “GSK Tres Cantos Anti-Kinetoplastid Screening (TCAKS) Data”.

Assays:
Trypanosoma cruzi [1] = assay: GSK_TCAKS: pIC50 Trypanosoma cruzi viability assay using beta-GAL activity. This assay was run at single shot at 5uM compound concentration per well. The biological reagents consisted of NIH-3T3 host cells and trypomastigotes parasitic cells; both cell types were set to a 3.3 * 10^5 cells/mL dilution in assay DMEM by means of a CASY cell counter device using a 60um capillary. 6 uL of the mixture were dispensed per well (about 1 * 10^3 host-cells and 1 * 10^3 parasites) with a Multidrop Combi dispenser. […] In all wells, the percentage of DMSO never exceeded 0.5%. Plates incubated for four days at 37C, 5% CO2. The substrate used for the assay fluorescence intensity (FLINT) readout was resorufin-beta-D-galactopiranoside (Sigma-Aldrich) at 5uM per well. It was diluted in PBS supplemented with the soft detergent Igepal (Fluka).; assay type: functional, organism-based, Mus musculus; details: Tulahuen, NIH3T3
[2] = target: Sterol 14-alpha demethylase (Trypanosoma cruzi (strain CL Brener), UniProt Q7Z1V1); assay: GSK_TCAKS: pIC50 CYP51 from Trypanosoma cruzi.; assay type: functional
Sterol 14-alpha demethylase, sequence (Q7Z1V1 whole entry): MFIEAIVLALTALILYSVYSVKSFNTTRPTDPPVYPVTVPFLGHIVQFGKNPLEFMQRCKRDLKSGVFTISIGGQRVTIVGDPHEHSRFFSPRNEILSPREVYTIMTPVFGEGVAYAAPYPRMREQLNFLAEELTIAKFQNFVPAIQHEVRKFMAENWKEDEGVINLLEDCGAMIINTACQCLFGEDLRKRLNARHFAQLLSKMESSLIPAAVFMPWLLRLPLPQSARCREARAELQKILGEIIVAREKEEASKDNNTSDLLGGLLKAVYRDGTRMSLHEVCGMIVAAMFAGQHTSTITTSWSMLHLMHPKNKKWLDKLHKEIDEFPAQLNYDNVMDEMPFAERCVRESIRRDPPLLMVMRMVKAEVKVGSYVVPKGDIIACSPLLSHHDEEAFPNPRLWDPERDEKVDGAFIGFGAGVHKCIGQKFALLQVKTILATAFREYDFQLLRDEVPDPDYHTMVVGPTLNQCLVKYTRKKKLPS

Leishmania donovani [3] = assay: (§1) GSK_TCAKS: pIC50 Leishmania donovani Imaging: Infected Macrophages. Assay plates (384-well) were prepared by adding 250nL of compound to each well. For single shot assay, the final compound concentration was 5 uM. […] Automated image analysis was performed with a script developed on Acapella High Content Imaging and Analysis Software (PerkinElmer). Output: Percent of infected macrophage cells were reported for each well.; assay type: functional, organism-based, Homo sapiens; details: THP-1
Trypanosoma cruzi [4] = assay: (§2) GSK_TCAKS: pIC50 Trypanosoma cruzi Imaging: Infected Cells. […] Cells were then washed once with PBS before infection. T. cruzi trypomastigotes, collected at days 5 to 8 after infection from LLC-MK2 parasite infected cultures, were allowed to swim out for 4h at 37C from a centrifuged pellet (2,500 rpm/10 min/room temperature). Trypomastigotes were then collected and counted in a CASY Cell Counter. Trypomastigotes, in supplemented DMEM, were added to H9c2 cultures in a multiplicity of infection of 1 and incubated for 18 h. Cells were washed once with PBS before incubation of the infected H9c2 monolayer with trypsin (Life-Technologies) to detach cells from the flask. Cells were counted in a CASY Cell Counter using a 150 um capillary and their density set at 5 * 10^4 cells per mL in supplemented assay DMEM. Infected H9c2 were dispensed into 384-well poly-lysine coated assay plates at 50uL per well using a Multidrop Combi dispenser. After seeding them, the plates were incubated at 37C, 5% CO2 for 72h. Cultures were then fixed and stained by addition of 50 uL of a solution containing 8% formaldehyde and 4 uM DRAQ5 DNA dye (BioStatus, UK) per well. […] Five images were collected per well for reliable statistical analysis. Automated image analysis was performed with a script developed on Acapella High Content Imaging and Analysis Software (PerkinElmer). Output: percentage of infected cells per well as a second infection marker.; assay type: functional, organism-based, Rattus norvegicus; details: H9c2, 4 h
[5] = tested on: Trypanosoma brucei brucei; assay: GSK_TCAKS: pIC50 Trypanosoma brucei viability assay using fluorescence intensity. Assay plates (1536-well) were prepared by dispensing 25nL of compound solution per well using an Echo acoustic dispenser (Labcyte).; assay type: functional, organism-based; details: Lister 427, 2 h
Leishmania donovani [6] = assay: as §1, with “Amastigotes/Macrophages.” for “Infected Macrophages.”, “Average number” for “Percent”, “amastigotes per” for “infected”, “cell” for “cells”; assay type: functional, organism-based, Homo sapiens; details: THP-1
[7] = GSK_TCAKS: pIC50 HepG2 human cell line viability assay using luminiscence. […] Seeding density was checked to ensure that new mono-layers were not more than 50% confluent at the time of harvesting. Cell suspension was added to 500 mL of the same medium at a final density of 1.2 * 10^5 cells/mL. This cell suspension was dispensed (25 uL, 3000 cells per well) into 384-well clear-bottom plates using a Multidrop Combi dispenser. Prior to addition of the cell suspension, the screening compounds (250 nL) were pre-dispensed into the plates with an Echo liquid handler. Plates were incubated for 48 h at 37C, 5% CO2. After incubation, plates equilibrated at room temperature for 30 min before proceeding to develop the luminescent signal. The signal developer, CellTiter-Glo Reagent, was allowed to equilibrate at room temperature for 30 min and added to the plates (25uL per well) using a Multidrop Combi dispenser. Plates were left for 10 min at room temperature for stabilization and then read using a ViewLux.; assay type: toxicity, cell-based
Leishmania donovani [8] = assay: as §1, with “THP-1 Host” for “Infected”, “THP-1 cell count” for “Percent of infected macrophage cells”; assay type: functional, organism-based, Homo sapiens
Leishmania donovani [9] = assay: GSK_TCAKS: pIC50 Leishmania donovani viability assay using fluorescence intensity. Assay plates (1536-well) were prepared by adding 30nL per well of compound. For single shot assay, the final compound concentration was 5uM. […] Briefly, eGFP LdBOB axenic amastigotes were harvested, fixed and counted in a CASY cell counter (Roche-Applied Science). A final concentration of 1.5 * 10^5 cells per well were prepared in amastigote media containing 500 U/mL penicillin/streptomycin (Invitrogen) and 6uL was dispensed to each experimental well using a Multidrop Combi dispenser (Thermo Scientific). 6uL of assay media was dispensed to control columns used as reference for 100% compound response. Following incubation for 72 h at 37C, 5% CO2, 2 uL of resazurin was added to each well at a final concentration of 0.5 mM in phosphate buffered saline (PBS) with IGEPAL (Sigma-Aldrich), 0.05% (v/v).; assay type: functional, organism-based
[10] = tested on: Trypanosoma brucei brucei; assay: GSK_TCAKS: pIC50 Trypanosoma brucei viability assay using luminiscence. Assay plates (1536-well) were prepared. T. brucei cultures were harvested and counted in a CASY cell counter. A parasite suspension was prepared at a final concentration of 5 * 10^4 cells/mL in complete HMI9 medium and 6uL was dispensed to all wells containing compounds using a Multidrop Combi dispenser. 6uL of HMI9 media with 0.4% DMSO were dispensed to control columns. Plates were incubated for 24 h at 37C, 5% CO2 then tempered for 10 min at room temperature. ATP content was quantified by adding 4 uL of CellTiter-Glo Reagent (Promega) according to the manufacturer's instructions. Luminescence was measured using a ViewLux.; assay type: functional, organism-based; details: Lister 427, CASY
Trypanosoma cruzi [11] = assay: GSK_TCAKS: pIC50 Trypanosoma cruzi Imaging: Amastigotes/Cell. […] Cells were then washed once with PBS before infection. T. cruzi trypomastigotes, collected at days 5 to 8 after infection from LLC-MK2 parasite infected cultures, were allowed to swim out for 4h at 37C from a centrifuged pellet (2,500 rpm/10 min/room temperature). Trypomastigotes were then collected and counted in a CASY Cell Counter. Trypomastigotes, in supplemented DMEM, were added to H9c2 cultures in a multiplicity of infection of 1 and incubated for 18 h. Cells were washed once with PBS before incubation of the infected H9c2 monolayer with trypsin (Life-Technologies) to detach cells from the flask. Cells were counted in a CASY Cell Counter using a 150 um capillary and their density set at 5 * 10^4 cells per mL in supplemented assay DMEM. Infected H9c2 were dispensed into 384-well poly-lysine coated assay plates at 50uL per well using a Multidrop Combi dispenser. After seeding them, the plates were incubated at 37C, 5% CO2 for 72h. Cultures were then fixed and stained by addition of 50 uL of a solution containing 8% formaldehyde and 4 uM DRAQ5 DNA dye (BioStatus, UK) per well. […] Five images were collected per well for reliable statistical analysis. Automated image analysis was performed with a script developed on Acapella High Content Imaging and Analysis Software (PerkinElmer). Output: number of amastigotes per cell as infection level measurement.; assay type: functional, organism-based, Rattus norvegicus; details: H9c2, 4 h
Trypanosoma cruzi [12] = assay: as §2, with “H2C9” for “Trypanosoma cruzi”, “H9c2 Host Cardiomyocytes.” for “Infected Cells.”, “Number” for “percentage”, “H9c2 Host Cardiomyocytes nuclei to determine drug-related cytotoxicity.” for “infected cells per well as a second infection marker.”; assay type: functional, organism-based, Rattus norvegicus; details: H9c2, 4 h
NIH3T3 = assay: GSK_TCAKS: pIC50 NIH 3T3 cell line viability assay using luminiscence. Tissue culture surface treated assay plates (1536-well) were used. […] The 100% cells survival control was determined exposing the host-cells to a 0.5% DMSO concentration, whereas the 100% toxicity control was achieved by seeding the cells in presence of Amphotericin B at 50uM. Plates were incubated for four days at 37C, 5% CO2. The assay readout was developed by addition of 5uL of CellTiter-Glo Reagent following the manufacturer's instructions. Luminiscence was measured using a ViewLux.; assay type: functional, cell-based; details: Mus musculus, NIH3T3, 96 h

SMILES	IC50 (Trypanosoma cruzi [1])	IC50 [2]	IC50 (Leishmania donovani [3])	IC50 (Trypanosoma cruzi [4])	IC50 [5]	IC50 (Leishmania donovani [6])	IC50 at 48 h [7]	IC50 (Leishmania donovani [8])	IC50 (Leishmania donovani [9])	IC50 [10]	IC50 (Trypanosoma cruzi [11])	IC50 (Trypanosoma cruzi [12])	IC50 (NIH3T3)
CC1=NN(C(=O)CCn2cnc([N+](=O)[O-])n2)C(O)(C(F)(F)F)C1 (centres undefined)	2 µM	> 100 µM	> 50.1 µM	6.31 µM	> 39.8 µM	> 50.1 µM	> 100 µM	> 50.1 µM	> 50.1 µM	> 39.8 µM	1.26 µM	> 50.1 µM	> 50.1 µM
N#Cc1c(Oc2cccc(Cl)c2)cccc1[N+](=O)[O-]	0.316 µM	> 100 µM	10 µM	0.631 µM	0.00794 µM	7.94 µM	25.1 µM	> 50.1 µM	7.94 µM	0.00501 µM	0.126 µM	15.8 µM	20 µM
Cn1nc([N+](=O)[O-])nc1Oc1ccc(C(=O)c2ccccc2)cc1	0.251 µM	> 100 µM	> 50.1 µM	0.316 µM	20 µM	> 50.1 µM	> 100 µM	> 50.1 µM	> 50.1 µM	> 39.8 µM	0.126 µM	> 50.1 µM	> 50.1 µM
COc1ccc2ncc(=O)n(CCN3CCOC(CNCc4ccc(C(F)(F)F)cc4F)C3)c2n1 (centres undefined)	0.398 µM	10 µM	> 50.1 µM	1.58 µM	0.631 µM	> 50.1 µM	> 100 µM	> 50.1 µM	39.8 µM	2.51 µM	0.631 µM	> 50.1 µM	3.98 µM
O=C(Nc1ccc(Br)cn1)c1ccc(Cn2cnc([N+](=O)[O-])n2)cc1	0.158 µM	> 100 µM	> 50.1 µM	0.126 µM	1.58 µM	> 50.1 µM	> 100 µM	> 50.1 µM	> 50.1 µM	3.16 µM	0.0794 µM	> 50.1 µM	> 50.1 µM
O=C(Cn1cnc2cc([N+](=O)[O-])ccc2c1=O)NCCc1ccc(Cl)cc1Cl	0.631 µM	> 100 µM	> 50.1 µM	0.398 µM	12.6 µM	> 50.1 µM	> 100 µM	> 50.1 µM	> 50.1 µM	> 39.8 µM	0.2 µM	> 50.1 µM	> 50.1 µM
O=C(c1ccc(OCCCc2cnc[nH]2)cc1)C1CC1	0.355 µM	0.0501 µM	> 50.1 µM	1.58 µM	10 µM	7.94 µM	> 100 µM	> 50.1 µM	> 50.1 µM	> 39.8 µM	1.26 µM	> 50.1 µM	12.6 µM
COc1ccc2nc(N(Cc3cccnc3)C(=O)C3CCC3)sc2c1	0.126 µM	0.0631 µM	> 50.1 µM	0.126 µM	20 µM	50.1 µM	> 100 µM	> 50.1 µM	12.6 µM	39.8 µM	0.1 µM	> 50.1 µM	50.1 µM
